Measurements from patent US6395745B1, “Alkaloid halide salts of swainsonine and methods of use” (priority 1997, dated 2002).

Key:
[1] = Toxicology studies (acute and chronic); type: in vivo
Experimental: Pharmacological and toxicological studies were conducted with swainsonine hydrochloride. In particular, the following were investigated: (a) pharmacokinetics of the compound in rats and monkeys; (b) acute toxicity at significant multiples of the intended human dose; (c) the toxicity profile of the compound was compared to the literature profile for swainsonine free base; (d) potential for genotoxicity; (e) time course, dose-dependence, tissue sensitivity and reversibility of oligosaccharide accumulation in tissue; and (f) serum AST and relationship to liver histology.

STAT1 = STAT1 level and activation in mice (Western blot, immunoblotting); type: in vivo, DBA/2 mice
Experimental: To measure the level and activation of STATs, DBA/2 mice are treated for 6-9 days with 20 μg/mouse/day of swainsonine hydrochloride followed by a single intraperitoneal (i.p) injection of either sterile saline or 100 μg of poly IC (i.e., dsRNA, a surrogate for virus) in sterile saline. Two hours later an optimal time for STAT activation, spleens of the mice are homogenized and cytosolic and nuclear cell extracts are prepared. STAT protein levels are measured in the cytosolic and nuclear fractions by Western blot analysis. STAT phosphorylation (i.e. activation) is measured following immunoprecipitation using anti-phosphotyrosine antibodies.
DBA/2 mice received daily ip injections of SW hydrochloride (20 μg/day) for 10 days. On day 11 the mice were injected with Poly IC (100 μg/mouse) or an equivalent volume of PBS 2 h before being sacrificed. Spleen and liver tissues were collected and immediately frozen in liquid nitrogen. Nuclear extracts were prepared and analyzed (8 μg) by immunoblotting with the indicated antibodies. […] Cytosol extracts were prepared and analyzed (20 μg) by immunoblotting with the indicated antibodies. Spleen nuclear extracts were prepared and analyzed (8 μg) by immunoblotting with anti-phosphotyrosine antibodies.

**Q.** What does the source list for Cl.O[C@H]1[C@H]2[C@H](O)CCCN2C[C@@H]1O [swainsonine hydrochloride, (−)-(1S,2S,8R,8aR)-1,2,8-trihydroxyoctahydro-indolizidine hydrochloride salt]?
**A.** dose at which acute toxicity occurs ([1]; acute toxicity): 13,000 times the intended human dose; sites of oligomannoside accumulation in lysosomes ([1]; chronic studies, doses proposed for humans): thyroid and also possibly the kidney could be the sites of reversible accumulation; activation of STAT1 in spleen (STAT1; 20 μg/day ip for 10 days, then Poly IC 100 μg/mouse, FIG. 10A): increases the activation; STAT1 cytosolic protein levels (STAT1; 20 μg/day ip, spleen): enhanced
